Structures can show the parent of a compound that is named as a salt.
Assays:
[1] = target: isolated recombinant JAK1 kinase domain (Homo sapiens (Human), UniProt P23458); test: JAK1 enzyme assay (Caliper LabChip, peptide phosphorylation); assay type: biochemical; conditions: isolated recombinant JAK1 kinase domain, 25 μM ATP
[2] = tested on: JAK1-dependent STAT6 phosphorylation downstream of IL-13 stimulation in BEAS-2B human bronchial epithelial cells; test: JAK1 pathway assay in BEAS-2B cells (IL-13-pSTAT6, MSD); assay type: cell-based; conditions: read-out: IL13-pSTAT6 EC50 (uM)_BEAS-2B
Method: JAK1 Pathway Assay in Cell Lines was Carried Out as Follows:
Inhibitor potency (EC50) was determined in cell-based assays designed to measure JAK1 dependent STAT phosphorylation.
In one assay approach, TF-1 human erythroleukemia cells obtained from the American Type Culture Collection (ATCC; Manassas, Va.) were used to measure JAK1-dependent STAT6 phosphorylation downstream of IL-13 stimulation. Prior to use in the assays, TF-1 cells were starved of GM-CSF overnight in OptiMEM medium (Life Technologies, Grand Island, N.Y.) supplemented with 0.5% charcoal/dextran stripped fetal bovine serum (FBS), 0.1 mM non-essential amino acids (NEAA), and 1 mM sodium pyruvate. The assays were run in 384-well plates in serum-free OptiMEM medium using 300,000 cells per well. In a second assay approach, BEAS-2B human bronchial epithelial cells obtained from ATCC were plated at 100,000 cells per well of a 96-well plate one day prior to the experiment. The BEAS-2B assay was run in complete growth medium (bronchial epithelial basal medium plus bulletkit; Lonza; Basel, Switzerland).
Test compounds were serially diluted 1:2 in DMSO and then diluted 1:50 in medium just before use. Diluted compounds were added to the cells, for a final DMSO concentration of 0.2%, and incubated for 30 min (for the TF-1 assay) or 1 hr (for the BEAS-2B assay) at 37° C. Then, cells were stimulated with human recombinant cytokine at their respective EC90 concentrations, as previously determined for each individual lot. Cells were stimulated with IL-13 (R&D Systems, Minneapolis, Minn.) for 15 min at 37° C. The TF-1 cell reactions were stopped by the direct addition of 10× lysis buffer (Cell Signaling Technologies, Danvers, Mass.), whereas the BEAS-2B cell incubations were halted by the removal of medium and addition of 1× lysis buffer. The resultant samples were frozen in the plates at −80° C. Compound mediated inhibition of STAT6 phosphorylation was measured in the cell lysates using MesoScale Discovery (MSD) technology (Gaithersburg, Md.).

[3] = target: isolated recombinant JAK2 kinase domain (Homo sapiens (Human), UniProt O60674); test: JAK2 enzyme assay (Caliper LabChip, peptide phosphorylation); assay type: biochemical; conditions: 25 μM ATP
[4] = tested on: JAK1-dependent STAT6 phosphorylation downstream of IL-13 stimulation in TF-1 human erythroleukemia cells; test: JAK1 pathway assay in TF-1 cells (IL-13-pSTAT6, MSD); assay type: cell-based; conditions: Homo sapiens, TF-1, TF-1 cells, read-out: IL13-pSTAT6 EC50_TF-1
In short: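 Cells were preincubated with compounds (0.2% DMSO) for 30 min (TF-1, GM-CSF-starved overnight, serum-free OptiMEM, 300,000 cells/well) or 1 h (BEAS-2B, complete medium, 100,000 cells/well) at 37 °C.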

Chain of isolated recombinant JAK2 kinase domain (O60674 849-1124): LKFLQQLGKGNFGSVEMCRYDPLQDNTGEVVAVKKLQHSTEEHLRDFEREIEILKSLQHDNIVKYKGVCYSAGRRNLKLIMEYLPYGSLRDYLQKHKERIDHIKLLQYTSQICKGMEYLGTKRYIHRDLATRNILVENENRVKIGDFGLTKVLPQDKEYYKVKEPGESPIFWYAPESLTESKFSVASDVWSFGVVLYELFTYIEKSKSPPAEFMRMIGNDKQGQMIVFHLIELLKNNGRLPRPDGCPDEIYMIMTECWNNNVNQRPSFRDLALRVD
Chain of isolated recombinant JAK1 kinase domain (P23458 875-1153): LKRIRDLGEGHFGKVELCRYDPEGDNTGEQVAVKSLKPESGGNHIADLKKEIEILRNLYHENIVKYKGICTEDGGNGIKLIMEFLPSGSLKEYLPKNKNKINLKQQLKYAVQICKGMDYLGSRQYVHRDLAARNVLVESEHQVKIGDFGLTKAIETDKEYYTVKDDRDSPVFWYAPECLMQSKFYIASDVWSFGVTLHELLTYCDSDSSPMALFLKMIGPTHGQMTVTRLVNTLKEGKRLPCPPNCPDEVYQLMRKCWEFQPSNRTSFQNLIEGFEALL

SMILES	Ki [1]	Ki [3]	EC50 [4]	EC50 [2]
CCN[C@@H](C)Cn1cc(NC(=O)c2cnn3cccnc23)c(-c2cc(Cl)ccc2OC(F)F)n1 [Example 371, N-[3-[5-chloro-2-(difluoromethoxy)phenyl]-1-[(2S)-2-(ethylamino)propyl]-1H-pyrazol-4-yl]pyrazolo[1,5-a]pyrimidine-3-carboxamide]				0.0146 µM
O=C(Nc1cn([C@@H]2CNCC[C@H]2O)nc1-c1cc(Cl)ccc1OC(F)F)c1cnn2cccnc12 [Example 360, N-[3-[5-chloro-2-(difluoromethoxy)phenyl]-1-[(3R,4R)-4-hydroxypiperidin-3-yl]-1H-pyrazol-4-yl]pyrazolo[1,5-a]pyrimidine-3-carboxamide]				0.0366 µM
O=C(Nc1cn([C@H]2CNCC[C@@H]2O)nc1-c1cc(Cl)ccc1OC(F)F)c1cnn2cccnc12 [Example 361, N-[3-[5-chloro-2-(difluoromethoxy)phenyl]-1-[(3S,4S)-4-hydroxypiperidin-3-yl]-1H-pyrazol-4-yl]pyrazolo[1,5-a]pyrimidine-3-carboxamide]				0.0273 µM
CNC(=O)[C@@H]1CCCN1CC1CCN(C(=O)Cn2cc(NC(=O)c3cnn4cccnc34)c(-c3cc(Cl)ccc3OC(F)F)n2)CC1 [Example 425, N-(3-(5-chloro-2-(difluoromethoxy)phenyl)-1-(2-(4-(((S)-2-(methyl-carbamoyl)pyrrolidin-1-yl)methyl)piperidin-1-yl)-2-oxoethyl)-1H-pyrazol-4-yl)pyrazolo[1,5-a]pyrimidine-3-carboxamide]				0.0411 µM
O=C(Nc1cn(CC(=O)N2CCC(N3CC[S+]([O-])CC3)CC2)nc1-c1cc(Cl)ccc1OC(F)F)c1cnn2cccnc12 [Example 443]				0.0663 µM
CCOC(=O)CCN1CCN(C(=O)Cn2cc(NC(=O)c3cnn4cccnc34)c(-c3cc(Cl)ccc3OC(F)F)n2)CC1 [Example 332]				0.0692 µM
CN(CC1(C#N)CC1)C1CCN(C(=O)Cn2cc(NC(=O)c3cnn4cccnc34)c(-c3cc(Cl)ccc3OC(F)F)n2)CC1 [Example 467, N-(3-(5-chloro-2-(difluoromethoxy)phenyl)-1-(2-(4-(((1-cyanocyclopropyl)methyl) (methyl)amino)piperidin-1-yl)-2-oxoethyl)-1H-pyrazol-4-yl)pyrazolo[1,5-a]pyrimidine-3-carboxamide]				0.0075 µM
O=C(Nc1cn(CC(=O)N2CC[C@H]3CNC[C@H]3C2)nc1-c1cc(Cl)ccc1OC(F)F)c1cnn2cccnc12 [Example 21, N-[1-[2-[(3aS,7aR)-1,2,3,3a,4,6,7,7a-octahydropyrrolo[3,4-c]pyridin-5-yl]-2-oxo-ethyl]-3-[5-chloro-2-(difluoromethoxy)phenyl]pyrazol-4-yl]pyrazolo[1,5-a]pyrimidine-3-carboxamide]	0.47 nM	1.16 nM	3040 nM	
CN1C[C@H]2CCN(C(=O)Cn3cc(NC(=O)c4cnn5cccnc45)c(-c4cc(Cl)ccc4OC(F)F)n3)C[C@H]2C1 [Example 25, N-[1-[2-[(3aR,7aS)-2-methyl-3,3a,4,6,7,7a-hexahydro-1H-pyrrolo[3,4-c]pyridin-5-yl]-2-oxo-ethyl]-3-[5-chloro-2-(difluoromethoxy)phenyl]pyrazol-4-yl]pyrazolo[1,5-a]pyrimidine-3-carboxamide]	0.66 nM	1.61 nM	121 nM	
Nc1nn2cccnc2c1C(=O)Nc1cn(CC(=O)N2C[C@H]3CN(CC4CCC(F)(F)CC4)C[C@H]3C2)nc1-c1cc(Cl)ccc1OC(F)F [Example 58, N-[1-[2-[(3aS,6aR)-2-[(4,4-difluorocyclohexyl)methyl]-1,3,3a,4,6,6a-hexahydropyrrolo[3,4-c]pyrrol-5-yl]-2-oxo-ethyl]-3-[5-chloro-2-(difluoromethoxy)phenyl]pyrazol-4-yl]-2-amino-pyrazolo[1,5-a]pyrimidine-3-carboxamide]	0.6 nM	0.33 nM	25.6 nM	
CN(C)C(=O)CCCN(C)C1CCN(C(=O)Cn2cc(NC(=O)c3cnn4cccnc34)c(-c3cc(Cl)ccc3OC(F)F)n2)CC1 [Example 88, N-[3-[5-chloro-2-(difluoromethoxy)phenyl]-1-[2-[4-[[4-(dimethylamino)-4-oxo-butyl]-methyl-amino]-1-piperidyl]-2-oxo-ethyl]pyrazol-4-yl]pyrazolo[1,5-a]pyrimidine-3-carboxamide]	1.72 nM	1.91 nM	299 nM	
O=C(Nc1cn(CC(=O)N2C[C@H]3CN(CCOCc4ccc(Cl)cc4)C[C@H]3C2)nc1-c1cc(Cl)ccc1OC(F)F)c1cnn2cccnc12 [Example 60, N-[1-[2-[(3aR,6aS)-2-[2-[(4-chlorophenyl)methoxy]ethyl]-1,3,3a,4,6,6a-hexahydropyrrolo[3,4-c]pyrrol-5-yl]-2-oxo-ethyl]-3-[5-chloro-2-(difluoromethoxy)phenyl]pyrazol-4-yl]pyrazolo[1,5-a]pyrimidine-3-carboxamide]	1.1 nM	0.7 nM	46.2 nM	
CN(C)C1CCN(C(=O)Cn2cc(NC(=O)c3cnn4cccnc34)c(-c3cc(Cl)ccc3OC(F)F)n2)C1 (stereo not shown) [Example 65, N-[3-[5-chloro-2-(difluoromethoxy)phenyl]-1-[2-[3-(dimethylamino)pyrrolidin-1-yl]-2-oxo-ethyl]pyrazol-4-yl]pyrazolo[1,5-a]pyrimidine-3-carboxamide]	0.54 nM	0.69 nM	9.4 nM	

Continued, in another order:

Ki [1]	Ki [3]	EC50 [4]	SMILES	EC50 [2]
0.59 nM			CN(CC1(C)OCCO1)C1CCN(C(=O)Cn2cc(NC(=O)c3cnn4cccnc34)c(-c3cc(Cl)ccc3OC(F)F)n2)CC1 [Example 438, N-(3-(5-chloro-2-(difluoromethoxy)phenyl)-1-(2-(4-(methyl((2-methyl-1,3-dioxolan-2-yl)methyl)amino)piperidin-1-yl)-2-oxoethyl)-1H-pyrazol-4-yl)pyrazolo[1,5-a]pyrimidine-3-carboxamide]	0.015 µM
3.29 nM			CSCCOC(=O)CNCCn1cc(NC(=O)c2cnn3cccnc23)c(-c2cc(Cl)ccc2OC(F)F)n1 [Example 396, 2-(methylthio)ethyl 2-(2-(3-(5-chloro-2-(difluoromethoxy)phenyl)-4-(pyrazolo[1,5-a]pyrimidine-3-carboxamido)-1H-pyrazol-1-yl)ethylamino)acetate]	0.0382 µM
0.75 nM			CN(C)C(=O)CNC1CCN(C(=O)Cn2cc(NC(=O)c3cnn4cccnc34)c(-c3cc(Cl)ccc3OC(F)F)n2)CC1 [Example 401, N-(3-(5-chloro-2-(difluoromethoxy)phenyl)-1-(2-(4-(2-(dimethylamino)-2-oxoethylamino)piperidin-1-yl)-2-oxoethyl)-1H-pyrazol-4-yl)pyrazolo[1,5-a]pyrimidine-3-carboxamide]	0.152 µM
0.6 nM	1.11 nM	16.2 nM	CN(C)C1CCN(C(=O)c2ccc(-n3cc(NC(=O)c4cnn5cccnc45)c(-c4cc(Cl)ccc4OC(F)F)n3)cc2)CC1 [Example 302, Pyrazolo[1,5-a]pyrimidine-3-carboxylic acid {3-(5-chloro-2-difluoromethoxy-phenyl)-1-[4-(4-dimethylamino-piperidine-1-carbonyl)-phenyl]-1H-pyrazol-4-yl}-amide hydrochloride]	
0.56 nM	0.4 nM	86.2 nM	CN(C)Cc1ccc(-c2nc(-c3cc(Cl)ccc3OC(F)F)c(NC(=O)c3cnn4cccnc34)s2)cc1 [Example 255, N-[4-[5-chloro-2-(difluoromethoxy)phenyl]-2-[4-[(dimethylamino)methyl]phenyl]thiazol-5-yl]pyrazolo[1,5-a]pyrimidine-3-carboxamide]	
1.16 nM	1.97 nM	187 nM	CN(CCc1ccc(C(F)(F)F)cc1)C1CCN(C(=O)Cn2cc(NC(=O)c3cnn4cccnc34)c(-c3cc(Cl)ccc3OC(F)F)n2)CC1 [Example 97, N-[3-[5-chloro-2-(difluoromethoxy)phenyl]-1-[2-[4-[methyl-[2-[4-(trifluoromethyl)phenyl]ethyl]amino]-1-piperidyl]-2-oxo-ethyl]pyrazol-4-yl]pyrazolo[1,5-a]pyrimidine-3-carboxamide]	
